Values quoted from earlier work, collected in patent US20210137911A1, “NOVEL CHRONOTHERAPY BASED ON CIRCADIAN RHYTHMS” (THE TRUSTEES OF THE UNIVERSITY OF PENNSYLVANIA, priority 2014, published 2021).
Positions of bridges follow the written chain, without caps; N, C: chain ends. Non-standard residues stand in square brackets, D forms with d. Residues, ends and D or L forms follow the SMILES beside them.

Conditions: half-life of therapeutic compound as listed in Table 1; cited from earlier work

Structure (SMILES) | ½ Life [h]
COc1cc(NC(C)CCCN)c2ncccc2c1 (stereo not drawn) [Primaquine] | 3.7
CCC1(c2ccccc2)C(=O)NCNC1=O [Primidone] | 3
CCN(CC)CCOC(=O)c1ccc(N)cc1 [Procaine] | 0.1283
NC(=O)CCC/N=C(\c1ccc(Cl)cc1)c1cc(F)ccc1O [Progabide] | 4

Same assay, conditions: in vivo; cited from earlier work

Structure (SMILES) | ½ Life [h]
CC[C@H](C)[C@H](NC(=O)[C@@H]1CCCN1C(=O)CNC(=O)[C@H](Cc1ccccc1)NC(=O)[C@H](CC(N)=O)NC(=O)[C@H](CC(N)=O)NC(=O)[C@H](CO)NC(=O)[C@H](CO)NC(=O)[C@H](Cc1c[nH]cn1)NC(=O)[C@@H](NC(=O)[C@H](CC(C)C)NC(=O)[C@H](Cc1ccccc1)NC(=O)[C@H](CC(N)=O)NC(=O)[C@H](C)NC(=O)[C@H](CC(C)C)NC(=O)[C@H](CCCNC(=N)N)NC(=O)[C@H](CCC(N)=O)NC(=O)[C@@H](NC(=O)[C@H](C)NC(=O)[C@@H]1CSSC[C@H](NC(=O)[C@@H](N)CCCCN)C(=O)N[C@@H](CC(N)=O)C(=O)N[C@@H]([C@@H](C)O)C(=O)N[C@@H](C)C(=O)N[C@@H]([C@@H](C)O)C(=O)N1)[C@@H](C)O)C(C)C)C(=O)N[C@@H](CC(C)C)C(=O)N1CCC[C@H]1C(=O)N1CCC[C@H]1C(=O)N[C@H](C(=O)N[C@@H](CC(N)=O)C(=O)N[C@H](C(=O)NCC(=O)N[C@@H](CO)C(=O)N[C@@H](CC(N)=O)C(=O)N[C@H](C(=O)N[C@@H](Cc1ccc(O)cc1)C(N)=O)[C@@H](C)O)C(C)C)[C@@H](C)O [Pramlintide] | 0.8
C[C@]12C=CC(=O)C=C1CC[C@@H]1[C@@H]2[C@@H](O)C[C@@]2(C)[C@H]1CC[C@]2(O)C(=O)CO [Prednisolone] | 2
CC(C)c1cccc(C(C)C)c1O [Propofol] | 1
CCCc1cc(=O)[nH]c(=S)[nH]1 [Propylthiouracil] | 2
CN(C)C(=O)Oc1ccc[n+](C)c1 [Pyridostigmine] | 3
CCOC(=O)[C@H](CCc1ccccc1)N[C@@H](C)C(=O)N1Cc2ccccc2C[C@H]1C(=O)O [Quinapril] | 2
COCCCOc1ccnc(C[S+]([O-])c2nc3ccccc3[nH]2)c1C (stereo not drawn) [Rabeprazole] | 1
CCC(=O)NCC[C@@H]1CCc2ccc3c(c21)CCO3 [Ramelteon] | 1
CCOC(=O)[C@H](CCc1ccccc1)N[C@@H](C)C(=O)N1[C@H](C(=O)O)C[C@@H]2CCC[C@@H]21 [Ramipril, reference compound] | 2
C#CCN[C@@H]1CCc2ccccc21 [Rasagiline] | 3
CNC(=O)c1cnn(-c2nc(N)c3ncn([C@@H]4O[C@H](CO)[C@@H](O)[C@H]4O)c3n2)c1 [Regadenoson] | 0.033
CCOc1cc(CC(=O)N[C@@H](CC(C)C)c2ccccc2N2CCCCC2)ccc1C(=O)O [Repaglinide] | 1
O=P(O)(O)C(O)(Cc1cccnc1)P(=O)(O)O [Risedronate] | 1.5
CC(NCCc1ccc(O)cc1)C(O)c1ccc(O)cc1 (stereo not drawn) [Ritodrine] | 1.7
CCN(C)C(=O)Oc1cccc([C@H](C)N(C)C)c1 [Rivastigmine] | 1.5
CN(C)CCc1c[nH]c2ccc(Cn3cncn3)cc12 [Rizatriptan] | 2
C=CC[N+]1([C@H]2C[C@H]3[C@@H]4CC[C@H]5C[C@H](O)[C@@H](N6CCOCC6)C[C@]5(C)[C@H]4CC[C@]3(C)[C@H]2OC(C)=O)CCCC1 [Rocuronium] | 1
CN(CCOc1ccc(CC2SC(=O)NC2=O)cc1)c1ccccn1 (stereo not drawn) [Rosiglitazone] | 3
CCCN(CCc1cccs1)[C@H]1CCc2c(O)cccc2C1 [Rotigotine] | 5
CCCCP(=O)(O)CCCN [SGS742] | 4
OCc1cc(C(O)CNCCCCCCOCCCCc2ccccc2)ccc1O (stereo not drawn) [Salmeterol] | 5.5

Structure (SMILES) | ½ Life [h]
O=C(Oc1ccccc1C(=O)O)c1ccccc1O [Salsalate] | 1
C#CCN(C)[C@H](C)Cc1ccccc1 [Selegiline] | 1.2
CC(C)CC(N(C)C)C1(c2ccc(Cl)cc2)CCC1 (stereo not drawn) [Sibutramine] | 1.1
CC(=O)S[C@@H]1CC2=CC(=O)CC[C@]2(C)[C@H]2CC[C@@]3(C)[C@@H](CC[C@@]34CCC(=O)O4)[C@H]12 [Spironolactone] | 0.166
CCC1=C(C)c2cc3[n-]c(cc4[n-]c(cc5nc(cc1n2)C(C)=C5CC)c(C)c4CCC(=O)O)c(CCC(=O)O)c3C.[Cl-].[Cl-].[Sn+4] [Stannsoporfin] | 3.8
CN(N=O)C(=O)N[C@@H](C=O)[C@@H](O)[C@H](O)[C@H](O)CO [Streptozocin] | 0.0833
O=C1C(CC[S+]([O-])c2ccccc2)C(=O)N(c2ccccc2)N1c1ccccc1 (stereo not drawn) [Sulfinpyrazone] | 4
CNS(=O)(=O)Cc1ccc2[nH]cc(CCN(C)C)c2c1 [Sumatriptan] | 2.5
Nc1c2c(nc3ccccc13)CCCC2 [Tacrine] | 2
CC(=O)N1N=C(c2ccc(N)cc2)c2cc3c(cc2C[C@H]1C)OCO3 [Talampanel] | 3
CCOc1ccccc1OCCN[C@H](C)Cc1ccc(OC)c(S(N)(=O)=O)c1 [Tamsulosin] | 5
CC[C@@H](c1cccc(O)c1)[C@@H](C)CN(C)C [Tapentadol] | 4
COc1cc([C@@H]2c3cc4c(cc3[C@@H](O[C@@H]3O[C@@H]5CO[C@@H](c6cccs6)O[C@H]5[C@H](O)[C@H]3O)[C@H]3COC(=O)[C@H]23)OCO4)cc(OC)c1O [Teniposide] | 5
CC(C)(C)NCC(O)c1cc(O)cc(O)c1 (stereo not drawn) [Terbutaline] | 5.5
C[C@]12CC[C@H]3[C@@H](CCC4=CC(=O)CC[C@@]43C)[C@@H]1CC[C@@H]2O [Testosterone] | 0.166
O=C1CCC(N2C(=O)c3ccccc3C2=O)C(=O)N1 (stereo not drawn) [Thalidomide] | 5
CCCC(C)C1(CC)C(=O)NC(=S)NC1=O (stereo not drawn) [Thiopental] | 3
CC(C(=O)O)c1ccc(C(=O)c2ccccc2)s1 (stereo not drawn) [Tiaprofenic acid] | 1.5
CC(C)(C)NC[C@H](O)COc1nsnc1N1CCOCC1 [Timolol] | 2.5
CCCCS(=O)(=O)N[C@@H](Cc1ccc(OCCCCC2CCNCC2)cc1)C(=O)O [Tirofiban] | 2
Clc1ccc2nsnc2c1NC1=NCCN1 [Tizanidine] | 2.5

Structure (SMILES) | ½ Life [h]
Cc1ccc(C(=O)c2ccc(CC(=O)O)n2C)cc1 [Tolmetin] | 2
CC[C@@]1(O)C(=O)OCc2c1cc1n(c2=O)Cc2cc3c(CN(C)C)c(O)ccc3nc2-1 [Topotecan] | 2
CC(C)OC(=O)CCC/C=C\C[C@@H]1[C@@H](/C=C/[C@@H](O)COc2cccc(C(F)(F)F)c2)[C@H](O)C[C@@H]1O [Travoprost] | 0.75
O=c1n(CCCN2CCN(c3cccc(Cl)c3)CC2)nc2ccccn12 [Trazodone] | 1
CCCCC[C@H](O)CC[C@@H]1[C@H]2Cc3cccc(OCC(=O)O)c3C[C@H]2C[C@H]1O [Treprostinil] | 2
CC1=C(/C=C/C(C)=C/C=C/C(C)=C/C(=O)O)C(C)(C)CCC1 [Tretinoin] | 0.5
C[C@]12C=CC(=O)C=C1CC[C@H]1[C@@H]3C[C@@H](O)[C@](O)(C(=O)CO)[C@@]3(C)C[C@H](O)[C@@]12F [Triamcinolone] | 1.466
Nc1nc(N)c2nc(-c3ccccc3)c(N)nc2n1 [Triamterene] | 4.25
OC(CCN1CCCCC1)(c1ccccc1)C1CCCCC1 (stereo not drawn) [Trihexyphenidyl] | 3.3
COc1cc2c3cc1Oc1cc(ccc1O)C[C@@H]1c4c(cc(OC)c(O)c4Oc4ccc(cc4)C[C@@H]3N(C)CC2)CC[N+]1(C)C [Tubocurarine] | 1
CC(C)[C@@H]1NC(=O)[C@H](CCCCN)NC(=O)[C@@H](Cc2c[nH]c3ccccc23)NC(=O)[C@H](Cc2ccc(O)cc2)NC(=O)[C@@H](NC(=O)[C@H](N)Cc2ccccc2)CSSC[C@@H](C(=O)N[C@@H](Cc2c[nH]c3ccccc23)C(N)=O)NC1=O [Vapreotide] (H-[dF]CY[dW]KVCW-NH2; disulfide 2-7) | 0.5
NC(=O)CC[C@@H]1NC(=O)[C@H](Cc2ccccc2)NC(=O)[C@H](Cc2ccc(O)cc2)NC(=O)[C@@H](N)CSSC[C@@H](C(=O)N2CCC[C@H]2C(=O)N[C@@H](CCCN=C(N)N)C(=O)NCC(N)=O)NC(=O)[C@H](CC(N)=O)NC1=O [Vasopressin] | 0.166
CC(=O)O[C@H]1C[C@@H]2CC[C@@H]3[C@H](CC[C@@]4(C)[C@H]3C[C@H]([N+]3(C)CCCCC3)[C@@H]4OC(C)=O)[C@@]2(C)C[C@@H]1N1CCCCC1 [Vecuronium] | 0.85
N#C[C@@H]1CCCN1C(=O)CNC12CC3CC(CC(O)(C3)C1)C2 [Vildagliptin] | 1.5
CC[C@]1(O)C[C@H]2CN(CCc3c([nH]c4ccccc34)[C@@](C(=O)OC)(c3cc4c(cc3OC)N(C=O)[C@H]3[C@@](O)(C(=O)OC)[C@H](OC(C)=O)[C@]5(CC)C=CCN6CC[C@]43[C@@H]65)C2)C1 [Vincristine] | 5
O=C(CCCCCCC(=O)Nc1ccccc1)NO [Vorinostat] | 2
CC(=O)N[C@H]1[C@H]([C@H](O)[C@H](O)CO)OC(C(=O)O)=C[C@@H]1N=C(N)N [Zanamivir] | 2.5
Cc1cn([C@H]2C[C@H](N=[N+]=[N-])[C@@H](CO)O2)c(=O)[nH]c1=O [Zidovudine] | 1.1
CN(C)CCc1c[nH]c2ccc(C[C@H]3COC(=O)N3)cc12 [Zolmitriptan] | 3
Cc1ccc(-c2nc3ccc(C)cn3c2CC(=O)N(C)C)cc1 [Zolpidem] | 2.6
CN1CCN(C(=O)OC2c3nccnc3C(=O)N2c2ccc(Cl)cn2)CC1 (stereo not drawn) [Zopiclone] | 5

Same assay, conditions: see Table 1; cited from earlier work

Structure (SMILES) | minimum reported half-life [h] | half-life
CCOC(=O)[C@H](CCc1ccccc1)N[C@@H](C)C(=O)N1[C@H](C(=O)O)C[C@@H]2CCC[C@@H]21 [Ramipril, reference compound] | 2 | –
CCC(C)(C)C(=O)O[C@H]1C[C@@H](C)C=C2C=C[C@H](C)[C@H](CC[C@@H]3C[C@@H](O)CC(=O)O3)[C@H]21 [Simvastatin, reference compound] | – | less than three
